The test system of test [1] is HCT-15. The test is described as follows: Cytotoxicity against human HCT15 cells after 72 hrs by MTT assay. The class given is functional, cell-based. As to conditions: HCT-15, 72 h. Background: Tetrazolium assays rely on reduction of a dye to a coloured formazan, in cell work by metabolically active cells.
Test [2] deals with A549. The test is described as follows: Cytotoxicity against human A549 cells at 30 uM after 48 hrs by MTT assay relative to control. The class given is functional.
Test [3] concerns HCT-15. Put plainly: Cytotoxicity against human HCT15 cells at 30 uM after 48 hrs by MTT assay relative to control. The class given is functional.
For test [4], the system named is HeLa. The test is described as follows: Cytotoxicity against human HeLa cells after 72 hrs by MTT assay. The class given is functional, cell-based.
For test [5], the system named is HeLa. The test is described as follows: Cytotoxicity against human HeLa cells at 30 uM after 48 hrs by MTT assay relative to control. The class given is functional.
The subject of test [6] is A549. The test is described as follows: Cytotoxicity against human A549 cells after 72 hrs by MTT assay. The class given is functional, cell-based. The following applies: A549, 72 h.
Test [7] has as its system HCT-116. The test is described as follows: Cytotoxicity against human HCT116 cells at 30 uM after 48 hrs by MTT assay relative to control. The class given is functional.
For test [8], the system named is MDA-MB-231. Put plainly: Cytotoxicity against human MDA-MB-231 cells at 30 uM after 48 hrs by MTT assay relative to control. The class given is functional.
For test [9], the system named is NCI-H460. The test is described as follows: Cytotoxicity against human NCI-H460 cells after 72 hrs by MTT assay. The class given is functional, cell-based. The following applies: NCI-H460, 72 h.
Test [10] has as its system HCT-116. Put plainly: Cytotoxicity against human HCT116 cells after 72 hrs by MTT assay. The class given is functional, cell-based. The following applies: HCT-116, 72 h.
The subject of test [11] is MDA-MB-231. Put plainly: Cytotoxicity against human MDA-MB-231 cells after 72 hrs by MTT assay. The following applies: MDA-MB-231, 72 h. The class given is functional, cell-based.
Test [12] relates to NCI-H460. Put plainly: Cytotoxicity against human NCI-H460 cells at 30 uM after 48 hrs by MTT assay relative to control. The class given is functional.

Each structure is given as a SMILES string.

Turning to `COC(=O)/C(=C(\N)C(=O)c1ccccc1)C1C(=O)Nc2ccc(Br)cc21` (stereo unspecified), the IC50 – broadly, the midpoint of a concentration-inhibition curve – with HCT-15 [1] is 28.5 µM; with HeLa [4] it was 12.2 µM; with A549 [6], 13 µM; in the test with NCI-H460 [9] it was 27.6 µM; in the test with HCT-116 [10] it was 25.9 µM; with MDA-MB-231 [11] it was 6.85 µM. Moreover, the Activity in the test with A549 [2], with HCT-15 [3], with HeLa [5], in the test with HCT-116 [7], in the test with MDA-MB-231 [8] and with NCI-H460 [12] was above 50% throughout.

In the case of `COC(=O)/C(=C(\N)C(=O)c1ccccc1)C1C(=O)N(Cc2ccccc2)c2ccc(C)cc21` (stereo unspecified), the IC50 in the test on HCT-15 [1] stood at 2.67 µM; in the test on HeLa [4], 6.28 µM; with A549 [6], 6.6 µM; in the test on NCI-H460 [9] it was 1.51 µM; in the test on HCT-116 [10], 3.31 µM; in the test on MDA-MB-231 [11], 13.9 µM. The Activity in the test on A549 [2], in the test with HCT-15 [3], with HeLa [5], with HCT-116 [7], with MDA-MB-231 [8] and in the test with NCI-H460 [12] was above 50% each time.

`CCOC(=O)/C(=C(\N)C(=O)c1ccccc1)C1C(=O)N(Cc2ccc(Br)cc2)c2ccccc21` (stereo unspecified): the IC50 worked out at 3.17 µM in the test with HCT-15 [1]; 7.28 µM in the test with HeLa [4]; 3.23 µM with A549 [6]; 3.9 µM in the test on NCI-H460 [9]; 3.26 µM in the test with HCT-116 [10]; 7.13 µM in the test on MDA-MB-231 [11]. Also, the Activity in the test on A549 [2], in the test with HCT-15 [3], with HeLa [5], in the test with HCT-116 [7], in the test with MDA-MB-231 [8] and with NCI-H460 [12] was above 50% throughout.

For the molecule `O=c1[nH]cc(F)c(=O)[nH]1` [FLUOROURACIL], the IC50 with HCT-15 [1] worked out at 11.9 µM; in the test with HeLa [4], 10.8 µM; in the test with A549 [6], 4.3 µM; in the test on NCI-H460 [9] it was 11.8 µM; in the test on HCT-116 [10] it was 11.6 µM; in the test with MDA-MB-231 [11], 21.1 µM.

Take `CCOC(=O)/C(=C(\N)C(=O)c1ccc(OC)cc1)C1C(=O)N(Cc2ccccc2)c2ccc(Cl)cc21` (stereo unspecified): the IC50 with HCT-15 [1] amounted to 3.15 µM; in the test with HeLa [4] it was 3.72 µM; with A549 [6], 3.25 µM; with NCI-H460 [9] it was 3.32 µM; in the test on HCT-116 [10], 3.82 µM; with MDA-MB-231 [11] it was 6.96 µM. In addition, the Activity in the test with A549 [2], with HCT-15 [3], in the test on HeLa [5], with HCT-116 [7], in the test with MDA-MB-231 [8] and with NCI-H460 [12] was above 50% each time.

As to `CCOC(=O)/C(=C(\N)C(=O)c1ccccc1)C1C(=O)N(Cc2ccccc2)c2ccc(Br)cc21` (stereo unspecified), the IC50 in the test on HCT-15 [1] came out at 26.1 µM; in the test with HeLa [4], 25.6 µM; in the test on A549 [6], 27.7 µM; in the test on NCI-H460 [9] it was 18.5 µM; in the test on HCT-116 [10], 28.7 µM; with MDA-MB-231 [11], 28.2 µM. In addition, the Activity with A549 [2], in the test on HCT-15 [3], in the test with HeLa [5], in the test on HCT-116 [7], with MDA-MB-231 [8] and in the test on NCI-H460 [12] was above 50% each time.

(Values after ChEMBL document CHEMBL4261621, “Synthesis of enamino-2-oxindoles via conjugate addition between α-azido ketones and 3-alkenyl oxindoles: Cytotoxicity evaluation and apoptosis inducing studies” (Bioorg Med Chem Lett, 2018).)
